Test system: FLAP (5-lipoxygenase activating protein)
Assay: In vitro binding test: displacement of [3H]-7-chloro-3-(5-((3-fluoropyridin-2-yl)methoxy)-2-methylphenyl)-3,4-dihydroquinazolin-2(1H)-one from Sf9 microsome fractions
Set-up: species or system human and mouse
Details: Sf9 microsome fractions expressing FLAP; 100% = radioligand binding with 10 μM sodium 3-(3-(tert-butylsulfanyl)-1-(4-chlorobenzyl)-5-isopropyl-1H-indol-2-yl)-2,2-dimethylpropanoate, 0% = DMSO; test compound concentration not given
Method in brief: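 Sf9 microsomes expressing human or mouse FLAP (2 μg/mL) preincubated with compound 10 min at room temperature, then 120 nM tritiated quinazolinone ligand added for 60 min; buffer 100 mM Tris-HCl pH 7.5 with NaCl, EDTA, DTT, glycerol, Tween20. Bound ligand filtered and counted by scintillation; 10 μM indole propanoate defines 100% inhibition, DMSO 0%.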

| Structure (SMILES) | inhibitory rate (%) |
| --- | --- |
| O=C(NCC(F)F)c1cc2c(c(C3CC3)n1)CN(c1cc3c(cc1Cl)CCC(c1ncccc1F)O3)C(=O)N2 (centres unmarked) [Example 147, 3-(6-chloro-2-(3-fluoropyridin-2-yl)-3,4-dihydro-2H-chromen-7-yl)-5-cyclopropyl-N-(2,2-difluoroethyl)-2-oxo-1,2,3,4-tetrahydropyrido[4,3-d]pyrimidine-7-carboxamide] | 104 |
| Cc1cc2c(cc1N1Cc3c(Cl)cnc(-c4cnn(C)c4)c3NC1=O)OC(c1ncccc1F)CC2 (centres unmarked) [Example 148, 5-chloro-3-(2-(3-fluoropyridin-2-yl)-6-methyl-3,4-dihydro-2H-chromen-7-yl)-8-(1-methyl-1H-pyrazol-4-yl)-3,4-dihydropyrido[3,4-d]pyrimidin-2(1H)-one] | 97 |
| O=C(NCC(F)(F)F)c1cc2c(c(C3CC3)n1)CN(c1cc3c(cc1Cl)CCC(c1ncccc1F)O3)C(=O)N2 (centres unmarked) [Example 149, 3-(6-chloro-2-(3-fluoropyridin-2-yl)-3,4-dihydro-2H-chromen-7-yl)-5-cyclopropyl-2-oxo-N-(2,2,2-trifluoroethyl)-1,2,3,4-tetrahydropyrido[4,3-d]pyrimidine-7-carboxamide] | 107 |
| CN(C)C(=O)c1cc2c(c(C3CC3)n1)CN(c1cc3c(cc1Cl)CCC(c1ncccc1F)O3)C(=O)N2 (centres unmarked) [Example 150, 3-(6-chloro-2-(3-fluoropyridin-2-yl)-3,4-dihydro-2H-chromen-7-yl)-5-cyclopropyl-N,N-dimethyl-2-oxo-1,2,3,4-tetrahydropyrido[4,3-d]pyrimidine-7-carboxamide] | 98 |
| Cc1cc2c(cc1N1Cc3c(cc(-c4c(C)noc4C)nc3C3CC3)NC1=O)OC(c1ncccc1F)CC2 (centres unmarked) [Example 151, 5-cyclopropyl-7-(3,5-dimethyl-1,2-oxazol-4-yl)-3-(2-(3-fluoropyridin-2-yl)-6-methyl-3,4-dihydro-2H-chromen-7-yl)-3,4-dihydropyrido[4,3-d]pyrimidin-2(1H)-one] | 90 |
| O=C1Nc2cncc(Cl)c2CN1c1cc2c(cc1Cl)CCC(c1ncccc1F)O2 (centres unmarked) [Example 152, 5-chloro-3-(6-chloro-2-(3-fluoropyridin-2-yl)-3,4-dihydro-2H-chromen-7-yl)-3,4-dihydropyrido[3,4-d]pyrimidin-2(1H)-one] | 103 |
| O=C1Nc2c(N3CCCC3)ncc(Cl)c2CN1c1cc2c(cc1Cl)CCC(c1ncccc1F)O2 (centres unmarked) [Example 153, 5-chloro-3-(6-chloro-2-(3-fluoropyridin-2-yl)-3,4-dihydro-2H-chromen-7-yl)-8-(pyrrolidin-1-yl)-3,4-dihydropyrido[3,4-d]pyrimidin-2(1H)-one] | 104 |
| Cc1cc2c(cc1N1Cc3c(cc(-n4cc(C(F)(F)F)cn4)nc3C3CC3)NC1=O)OC(c1ncccc1F)CC2 (centres unmarked) [Example 154, 5-cyclopropyl-3-(2-(3-fluoropyridin-2-yl)-6-methyl-3,4-dihydro-2H-chromen-7-yl)-7-(4-(trifluoromethyl)-1H-pyrazol-1-yl)-3,4-dihydropyrido[4,3-d]pyrimidin-2(1H)-one] | 100 |
| O=C1Nc2c(-c3ccoc3)ncc(Cl)c2CN1c1cc2c(cc1Cl)CCC(c1ncccc1F)O2 (centres unmarked) [Example 155, 5-chloro-3-(6-chloro-2-(3-fluoropyridin-2-yl)-3,4-dihydro-2H-chromen-7-yl)-8-(3-furyl)-3,4-dihydropyrido[3,4-d]pyrimidin-2(1H)-one] | 101 |
| COc1ncc(Cl)c2c1NC(=O)N(c1cc3c(cc1C)CCC(c1ncccc1F)O3)C2 (centres unmarked) [Example 156, 5-chloro-3-(2-(3-fluoropyridin-2-yl)-6-methyl-3,4-dihydro-2H-chromen-7-yl)-8-methoxy-3,4-dihydropyrido[3,4-d]pyrimidin-2(1H)-one] | 95 |
| N#Cc1ncc(Cl)c2c1NC(=O)N(c1cc3c(cc1Cl)CCC(c1ncccc1F)O3)C2 (centres unmarked) [Example 157, 5-chloro-3-(6-chloro-2-(3-fluoropyridin-2-yl)-3,4-dihydro-2H-chromen-7-yl)-2-oxo-1,2,3,4-tetrahydropyrido[3,4-d]pyrimidine-8-carbonitrile] | 104 |
| Cc1cc2c(cc1N1Cc3c(Cl)cnc(N4CCCC4)c3NC1=O)OC(c1ncccc1F)CC2 (centres unmarked) [Example 158, 5-chloro-3-(2-(3-fluoropyridin-2-yl)-6-methyl-3,4-dihydro-2H-chromen-7-yl)-8-(pyrrolidin-1-yl)-3,4-dihydropyrido[3,4-d]pyrimidin-2(1H)-one] | 99 |
| Cc1cc2c(cc1N1Cc3c(cc(OCC(F)F)nc3C3CC3)NC1=O)OC(c1ncccc1F)CC2 (centres unmarked) [Example 159, 5-cyclopropyl-7-(2,2-difluoroethoxy)-3-(2-(3-fluoropyridin-2-yl)-6-methyl-3,4-dihydro-2H-chromen-7-yl)-3,4-dihydropyrido[4,3-d]pyrimidin-2(1H)-one] | 97 |
| Cc1cc2c(cc1N1Cc3c(Cl)cnc(-c4ccnn4C)c3NC1=O)OC(c1ncccc1F)CC2 (centres unmarked) [Example 160, 5-chloro-3-(2-(3-fluoropyridin-2-yl)-6-methyl-3,4-dihydro-2H-chromen-7-yl)-8-(1-methyl-1H-pyrazol-5-yl)-3,4-dihydropyrido[3,4-d]pyrimidin-2(1H)-one] | 93 |
| CCOc1ncc(Cl)c2c1NC(=O)N(c1cc3c(cc1C)CCC(c1ncccc1F)O3)C2 (centres unmarked) [Example 161, 5-chloro-8-ethoxy-3-(2-(3-fluoropyridin-2-yl)-6-methyl-3,4-dihydro-2H-chromen-7-yl)-3,4-dihydropyrido[3,4-d]pyrimidin-2(1H)-one] | 90 |
| Cc1cc2c(cc1N1Cc3c(C4CC4)cnc(-c4cnn(C)c4)c3NC1=O)OC(c1ncccc1F)CC2 (centres unmarked) [Example 162, 5-cyclopropyl-3-(2-(3-fluoropyridin-2-yl)-6-methyl-3,4-dihydro-2H-chromen-7-yl)-8-(1-methyl-1H-pyrazol-4-yl)-3,4-dihydropyrido[3,4-d]pyrimidin-2(1H)-one] | 95 |
| Cn1cc(-c2ncc(C3CC3)c3c2NC(=O)N(c2cc4c(cc2Cl)CCC(c2ncccc2F)O4)C3)cn1 (centres unmarked) [Example 163, 3-(6-chloro-2-(3-fluoropyridin-2-yl)-3,4-dihydro-2H-chromen-7-yl)-5-cyclopropyl-8-(1-methyl-1H-pyrazol-4-yl)-3,4-dihydropyrido[3,4-d]pyrimidin-2(1H)-one] | 98 |
| Cc1cc2c(cc1N1Cc3c(Cl)cnc(-c4ccoc4)c3NC1=O)OC(c1ncccc1F)CC2 (centres unmarked) [Example 164, 5-chloro-3-(2-(3-fluoropyridin-2-yl)-6-methyl-3,4-dihydro-2H-chromen-7-yl)-8-(3-furyl)-3,4-dihydropyrido[3,4-d]pyrimidin-2(1H)-one] | 102 |
| Cc1cc2c(cc1N1Cc3c(Cl)cnc(N(C)C)c3NC1=O)OC(c1ncccc1F)CC2 (centres unmarked) [Example 165, 5-chloro-8-(dimethylamino)-3-(2-(3-fluoropyridin-2-yl)-6-methyl-3,4-dihydro-2H-chromen-7-yl)-3,4-dihydropyrido[3,4-d]pyrimidin-2(1H)-one] | 104 |
| O=C1Nc2c(C3CC3)ncc(F)c2CN1c1cc2c(cc1Cl)CCC(c1ncccc1F)O2 (centres unmarked) [Example 166, 3-(6-chloro-2-(3-fluoropyridin-2-yl)-3,4-dihydro-2H-chromen-7-yl)-8-cyclopropyl-5-fluoro-3,4-dihydropyrido[3,4-d]pyrimidin-2(1H)-one] | 106 |
| Cc1cc2c(cc1N1Cc3c(F)cnc(-c4cnn(C)c4)c3NC1=O)OC(c1ncccc1F)CC2 (centres unmarked) [Example 167, 5-fluoro-3-(2-(3-fluoropyridin-2-yl)-6-methyl-3,4-dihydro-2H-chromen-7-yl)-8-(1-methyl-1H-pyrazol-4-yl)-3,4-dihydropyrido[3,4-d]pyrimidin-2(1H)-one] | 95 |
| Cc1cc2c(cc1N1Cc3c(F)cnc(C4CC4)c3NC1=O)OC(c1ncccc1F)CC2 (centres unmarked) [Example 168, 8-cyclopropyl-5-fluoro-3-(2-(3-fluoropyridin-2-yl)-6-methyl-3,4-dihydro-2H-chromen-7-yl)-3,4-dihydropyrido[3,4-d]pyrimidin-2(1H)-one] | 91 |
| Cn1cc(-c2ncc(F)c3c2NC(=O)N(c2cc4c(cc2Cl)CCC(c2ncccc2F)O4)C3)cn1 (centres unmarked) [Example 169, 3-(6-chloro-2-(3-fluoropyridin-2-yl)-3,4-dihydro-2H-chromen-7-yl)-5-fluoro-8-(1-methyl-1H-pyrazol-4-yl)-3,4-dihydropyrido[3,4-d]pyrimidin-2(1H)-one] | 92 |
| Cc1ccc(OCc2c(F)cccc2F)cc1N1Cc2ccccc2NC1=O [Example 170, 3-(5-((2,6-difluorobenzyl)oxy)-2-methylphenyl)-3,4-dihydroquinazolin-2(1H)-one] | 91 |
| COC(=O)c1ccc2c(c1)NC(=O)N(c1cc(OCc3c(F)cccc3F)ccc1C)C2 [Example 171, methyl 3-(5-((2,6-difluorobenzyl)oxy)-2-methylphenyl)-2-oxo-1,2,3,4-tetrahydroquinazoline-7-carboxylate] | 99 |
| Cc1ccc(OCc2ccccc2F)cc1N1Cc2ccccc2NC1=O [Example 172, 3-(5-((2-fluorobenzyl)oxy)-2-methylphenyl)-3,4-dihydroquinazolin-2(1H)-one] | 80 |
| Cc1ccc(OCc2ccccc2Cl)cc1N1Cc2ccccc2NC1=O [Example 173, 3-(5-((2-chlorobenzyl)oxy)-2-methylphenyl)-3,4-dihydroquinazolin-2(1H)-one] | 70 |
| Cc1ccc(OCc2c(F)cc(Cl)cc2F)cc1N1Cc2ccccc2NC1=O [Example 174, 3-(5-((4-chloro-2,6-difluorobenzyl)oxy)-2-methylphenyl)-3,4-dihydroquinazolin-2(1H)-one] | 54 |
| Cc1ccc(OCc2cccs2)cc1N1Cc2ccccc2NC1=O [Example 175, 3-(2-methyl-5-(2-thienylmethoxyl)phenyl)-3,4-dihydroquinazolin-2(1H)-one] | 51 |
